Each block holds one molecule with its values, some of them ahead of it.
How the values were obtained:
Buffer stability assay = type: physicochemical
Pin1 [1] = biological target: T1, Pin1 (Homo sapiens, UniProt Q13526); assay: Intact protein MS labeling of Pin1; type: binding; settings: 2 μM Pin1, 2 μM compound, pH 7.5, 1 h, 25 °C
T1 construct: The catalytic domain of Pin1 (2 μM) in […] and 75 mM NaCl (pH 7.5) was incubated; made in house
Protocol: Initially, we incubated these compounds (4a–4g; 2 μM) with Pin1 (2 μM; 50 mM Tris buffer; pH 7.5, 1 h; 25 °C) to check covalent labeling by intact protein MS (Figure 5B,C; Figure S23). Under these conditions, sulfopin labeled 59% as previously reported;[38] the sulfonate (4a) labeled 18%, whereas alkyl sulfamates (4b and 4c) labeled 16 and 56%, respectively. […] We have previously reported that replacing the tert-butyl group in sulfopin by a cyclohexyl increases the labeling along with intrinsic thiol reactivity. Compound 4g contains a cyclohexyl group instead of the tert-butyl and a phenyl sulfamate electrophile and was able to label >95% of Pin1 under these conditions.
Pin1 was expressed and purified as previously reported.[38] The catalytic domain of Pin1 (2 μM) in […] and 75 mM NaCl (pH 7.5) was incubated with 2 μM sulfopin sulfamate (4a–4g) for 1 h at 25 °C.
The reaction mixtures, at room temperature for various times, were injected into the LC/MS. For data analysis, the raw spectra were deconvoluted using a 20,000:40,000 Da (For Pin1, 10,000:30,000) window and 1 Da resolution. The labeling percentage for a compound was determined as the labeling of a specific compound (alone or together with other compounds) divided by the overall detected protein species.

Pin1 [2] = biological target: T1, Pin1; assay: Determination of KI and Kinact for Pin1; type: binding; settings: Pin1 0.5 μM, 100 mM Tris buffer pH 7.4, 14 °C
Protocol: intensities. Ratios that were above 20 or infinite (due to the sum being zero for the low intensities) were defined as 20. Intensities measured for different peptides containing the same modified cysteine were […]
Pin 1 (500 nM) was incubated at various concentrations of Sulfopin (0.5, 1, 2, 5, 20, 50, 100, 150, […]
in 100 mM Tris buffer at pH 7.4. After the addition, the samples are put at 14 °C. The reaction mixtures, at various time points (indicated in the graph), were injected into the LC/MS. For data analysis, the raw spectra were deconvoluted using a 10000:30000 Da window and 1 Da resolution. The labeling percentage for a compound was determined as the labeling of a specific compound (alone or together with other compounds) divided by the overall detected protein species. The % of unlabelled Pin 1 was plotted against time and fitted to the pseudo-first-order reaction kinetics formula (Figure S24A & C). The obtained rate constants were fitted to the Michaelis-Menten-type saturation curve (Fig. S24B & D) to extrapolate kinact and KI.

PATU-8988T cells = assay: Competitive isoDTB-ABPP in PATU-8988T cells; type: cell-based, human; parameters: dose or concentration left out as unconfirmed; settings: 4 h
Protocol: Using our previously reported sulfopin-DTB probe[38] (Figure S29A), we evaluated the cellular engagement of these compounds with Pin1 in OCI-AML2 cells. Compounds 4c, 4d, 4e, and 4g and sulfopin were incubated in OCI-AML2 cells (0.5 and 2.5 μM) followed by lysis and treatment with sulfopin-DTB (1 μM). The lysates were pulled down using streptavidin beads, and Pin1 was imaged by Western blot. […] At 0.5 μM, all of these compounds show only ∼30% Pin1 engagement. […] Both sulfopin and 4d labeled only six peptides with an H/L ratio of >2. […]
The preparation of IsoDTB-ABPP samples was performed essentially as described in Zanon et al.2.
Experiments were conducted in quadruplicates. PATU cells were incubated for 2 h with 5 µM compounds Sulfopin or 3g (or with DMSO), and collected by centrifuge at 300 g for 5 min followed by ice cold PBS wash. For lysis, samples containing 10 million cells were dispersed in 0.5 mL of RIPA buffer (Sigma, R0278), incubated with occasional vortexing for 30 min on ice, followed by centrifugation at 21,000 g for 15 min. […]
sample was diluted to 1.7 mg/mL using PBS. To each sample, 5 µL of 10 mM IA-alkyne was added, followed by 1 h incubation at room temperature in the dark. 10 µL of 5 mM DesThioTag was added (Light for the compound treated samples, heavy for the DMSO-treated samples), followed by 18 µL of CuSO4:THPTA (100 mM), and the click reaction was initiated by addition of 15 µL of 150 mM sodium ascorbate (freshly dissolved in water). The samples were incubated on a rotary shaker for 1 h at room temperature. The compound-treated and DMSO-treated samples were mixed with 4 mL methanol, 1 mL chloroform and 2 mL water on ice, vortexed and centriduged at 3200 g for 10 min at 4°C. The top layer was aspirated, and 3 mL methanol was added, followed by centrifugation and aspiration of the supernatant. The pellets were air dried and stored at -80°C until the following treatment. The pellets were resuspended in 0.3 mL of 8 M urea freshly dissolved in PBS using probe sonication (8 sec total at 40% amplitude, 1 sec on/2 sec off, at room temperature). Following the resuspension, the samples were diluted with 1 mL of PBS. Then each sample was mixed with 1.3 mL of slurry containing 110 µL of streptavidin agarose beads (Thermo Streptavidin Agarose cat # 20349), prewashed, and dispersed in 0.2% IGEPAL. The samples were incubated with rotation for 3 h at room temperature. The beads were pelleted by centrifugation at 2000 g for 2 min, transferred to spin columns, and washed 3 times with 0.1% IGEPAL/PBS, 3 times PBS, and 3 times water.
The beads were then suspended in 8 M Urea/50 mM ammonium bicarbonate, and 15 µL of 31 mg/mL DTT were added, followed by incubation at 37°C for 45 min. […]

[3] = Metabolic stability of sulfopin analogues in liver microsomes; type: in vitro ADME
Protocol: Next, we examined the buffer stability of the sulfopin sulfamate acetamides in PBS buffer (pH 8; 37 °C). Similar to the model compounds, the chloroacetamide (sulfopin) and sulfonate (4a) warheads show 30 and 15% hydrolysis after 2 days, respectively (Figure S26).
Figure S27: Sulfopin sulfamates show high metabolic stability: Compounds (Sulfopin, 4d, and 4g) were incubated
in liver microsomes and injected to LC/MS/MS at indicated time points. The peak intensities of the compounds were […]

[4] = DTNB thiol reactivity assay; type: physicochemical
Protocol: The compound 5,5′-dithio-bis(2-nitrobenzoic acid) (DTNB; 50 μM) was incubated with 200 μM tris(2-carboxyethyl)phosphine (TCEP) in 20 mM sodium phosphate buffer (pH 7.4) and 150 mM NaCl for 5 min at room temperature to obtain TNB^–2. […] UV absorbance was acquired every 15 min for 7 h. The assay was performed in a 384-well plate using a Tecan Spark 10 M plate reader. […] Compounds were measured in triplicate. The data were fitted to a second-order reaction equation such that the rate constant (K) is the slope of ln([A][B0]/[B][A0]), where [A0] and [B0] are the initial concentrations of the compound (200 μM) and TNB^–2 (100 μM), respectively, and [A] and [B] are the remaining concentrations as a function of time as deduced from spectrometric measurements. Linear regression using Prism was performed to fit the rate against the first 7 h of measurements.

Mino cells = assay: In situ proteomic labeling with alkyne probes, in-gel fluorescence; type: cell-based; settings: 2 h, TAMRA-azide CuAAC
Description: To assess proteomic selectivity in cells, we have synthesized two sulfamate acetamides (2a and 2b) and a chloroacetamide (2c) with an alkyne functionality (Figure 2A and Figure S8). We treated Mino cells for two hours with either DMSO or 2a–2c. We then lysed the cells, labeled the alkynes via copper-catalyzed “click chemistry” (CuAAC) with TAMRA-azide, and imaged the adducts via in-gel fluorescence (Figure 2C). Similar to their reactivity pattern in the GSH reactivity assay, these compounds labeled various amounts of proteins under cellular conditions.
Mino cells were cultured in RPMI-medium supplemented with 15% FBS and 1% p/s at 37 °C and 5% CO2. […] The cells were lysed with RIPA buffer (Sigma, R0278), and protein concentration was determined using BCA protein assay (Thermo Fisher Scientific, 23225). Lysates were then diluted to 2 mg/mL in PBS. Lysates were clicked to TAMRA-azide (Lumiprobe). “Click” reaction was performed using a final concentration of 40 μM TAMRA-azide, 3 mM CuSO4, 3 mM Tris(3-hydroxypropyltriazolylmethyl)amine (THPTA, Sigma), and 3.7 mM Sodium L-ascorbate (Sigma) in a final volume of 60 μL. The samples were subjected to precipitation.
Precipitation: 1× chloroform, 4× methanol, and 3× water were added to the samples and vortexed thoroughly. The samples were spun down for 10 min at 4 °C, 21,000g. […]

[5] = GSH consumption assay (LC/MS); settings: 100 μM compound, 5 mM GSH, same conditions as ibrutinib
BTK [6] = biological target: T2, BTK (Homo sapiens, UniProt Q06187); assay: BTK activity (autophosphorylation) in Mino cells, Western blot; type: cell-based; parameters: endogenous in cells; host or cells: Mino cells; settings: anti-human IgM activation
Protocol: To assess the cellular efficacy of these compounds, we followed the inhibition of BTK autophosphorylation in Mino cells. After 1 h of pre-incubation with the inhibitors and B-cell activation with an anti-IgM antibody, BTK autophosphorylation was followed by Western blot.
The cell pellets were subjected to immunoblotting, and Western blots were performed for p-BTK, BTK, and β-actin.
Cell pellets were washed with ice-cold PBS and lysed using RIPA buffer (Sigma, R0278). […] Samples containing 50 μg total protein were prepared with 4× LDS sample buffer (NuPAGE, Thermo Scientific, NP0007) and 20 mM DTT, which were then resolved on a 4–20% Bis–Tris gel (GeneScript SurePAGE, M00657). […] An EZ-ECL Kit (Biological Industries, 20-500-1000) was used to detect HRP activity.

BTK [7] = biological target: T2, BTK; assay: Cellular labeling profile of CoLDR probe in Mino cells, in-gel fluorescence; type: cell-based; parameters: endogenous in cells; host or cells: Mino cells; settings: 2 h, 100 nM
[8] = Q13526_C113 (Pin1 Cys113), text: PATU-8988T cells

T1 sequence (Q13526 52-163 limits assumed): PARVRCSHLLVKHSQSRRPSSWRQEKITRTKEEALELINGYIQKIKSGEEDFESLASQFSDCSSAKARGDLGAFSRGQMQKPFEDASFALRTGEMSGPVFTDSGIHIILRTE
T2 sequence (Q06187 whole entry): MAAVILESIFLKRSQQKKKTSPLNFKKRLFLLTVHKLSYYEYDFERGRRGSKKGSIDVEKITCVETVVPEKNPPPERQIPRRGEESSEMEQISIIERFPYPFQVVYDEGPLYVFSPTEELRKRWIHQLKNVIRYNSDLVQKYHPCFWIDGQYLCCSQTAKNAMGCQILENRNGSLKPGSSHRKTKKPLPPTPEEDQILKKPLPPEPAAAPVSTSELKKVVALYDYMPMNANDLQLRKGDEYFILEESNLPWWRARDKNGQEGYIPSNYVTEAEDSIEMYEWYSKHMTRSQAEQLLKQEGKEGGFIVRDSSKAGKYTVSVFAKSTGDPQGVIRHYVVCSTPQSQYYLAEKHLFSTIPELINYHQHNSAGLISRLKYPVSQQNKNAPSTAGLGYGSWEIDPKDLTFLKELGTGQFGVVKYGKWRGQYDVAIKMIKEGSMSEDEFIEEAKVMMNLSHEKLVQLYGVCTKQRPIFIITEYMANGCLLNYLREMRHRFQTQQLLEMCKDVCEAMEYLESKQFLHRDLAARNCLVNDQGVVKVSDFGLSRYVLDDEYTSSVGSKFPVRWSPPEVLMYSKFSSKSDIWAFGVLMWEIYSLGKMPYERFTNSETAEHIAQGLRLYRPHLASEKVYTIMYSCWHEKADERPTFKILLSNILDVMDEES

hydrolysis (buffer stability, sulfopin analogues) (Buffer stability assay; 200 μM, PBS buffer pH 8, 37 °C for four days): 30%
hydrolysis (buffer stability, sulfopin analogues) (Buffer stability assay; PBS buffer pH 8, 37 °C, after 2 days): 30%
labeling of Pin1 (Pin1 [1]): 59%
Ki (Pin1 [2]): 217 µM
metabolic stability (in words) [3]: good metabolic stability
Compound: CC(C)(C)CN(C(=O)CCl)C1CCS(=O)(=O)C1 (stereo not drawn) [sulfopin, reference compound]
isoDTB-ABPP H/L Ratio (PATU-8988T cells; P18031_C32, text: PATU-8988T cells): 2.941
isoDTB-ABPP H/L Ratio (PATU-8988T cells; [8]): 11.8257

thiol reactivity compared to sulfopin [4]: lower thiol reactivity than sulfopin
labeling of Pin1 (Pin1 [1]): > 90%
Ki (Pin1 [2]): 43.6 µM
metabolic stability (in words) [3]: good metabolic stability
Compound: CC(C)(C)CN(C(=O)COS(=O)(=O)Nc1ccccc1)C1CCS(=O)(=O)C1 (stereo not drawn) [4d]
isoDTB-ABPP H/L Ratio (PATU-8988T cells; [8]): 3.057
isoDTB-ABPP H/L Ratio (PATU-8988T cells; Q15149_C4494, text: PATU-8988T cells): 2.693

Compound: C#Cc1ccc(NC(=O)CCl)cc1 [2c]
proteins labeled under cellular conditions (Mino cells): labeled the highest number of proteins

Compound: C#CCOS(=O)(=O)N1CCC[C@@H](n2nc(-c3ccc(Oc4ccccc4)cc3)c3c(N)ncnc32)C1 [3j]
reaction with GSH (in words) [5]: did not undergo any reaction with GSH
BTK autophosphorylation / activity after treatment (in words) (BTK [6]): BTK remained active
apparent off-targets that ibrutinib did not compete (BTK [7]): three
BTK labeling in cells (in words) (BTK [7]; TAMRA-azide): showed BTK labeling
